According to patent US20230226005A1, “Methods of Treating, Ameliorating, Shortening Duration, and/or Reversing Symptoms and/or Complications of a Coronavirus Infection” (Yale University, priority 2020, published 2023):

Experiments:
[1] = system: COVID-19 infection; assay: Phase IIa study: COVID-19 PRO daily self-score, symptom severity score (items 1-33, 0-132); format: in vivo
[2] = system: SARS-CoV-2; details: 600 mg po four times daily for up to 14 days; cited from earlier work
[3] = system: COVID-19 infection; assay: Phase IIa study: nose-family symptom score; format: in vivo

CN(C)C(=O)COC(=O)Cc1ccc(OC(=O)c2ccc(NC(=N)N)cc2)cc1 [camostat, 4-[[4-[(Aminoiminomethyl)amino]benzoyl]oxy]benzeneacetic acid 2-(dimethylamino)-2-oxoethyl ester]
symptom severity score, Negative binomial model, A: Camostat arm ([1]; day 7): 12.09 (2.79) | symptom severity score, Negative binomial model, B − A ([1]; day 7): 1.23 (0.3) | COVID-19 symptom severity score raw Mean ([1]; day 8): 11.4 | symptom score, Fitzmaurice mixed effects model, A: Camostat arm ([1]; day 8): 9.57 (2.67) | symptom score, Fitzmaurice mixed effects model, B − A (placebo − camostat) ([1]; day 8): 5.4 (2.85) | symptom severity score, ANCOVA linear mixed model, A: Camostat arm ([1]; day 8): −21.42 (2.2) | symptom severity score, ANCOVA linear mixed model, B − A (placebo − camostat) ([1]; day 8): 4.43 (3.06) | symptom severity score, Negative binomial model, A: Camostat arm ([1]; day 8): 10.6 (2.64) | symptom severity score, Negative binomial model, B − A ([1]; day 8): 1.28 (0.34) | COVID-19 symptom severity score raw Mean ([1]; day 9): 10.7 | symptom score, Fitzmaurice mixed effects model, A: Camostat arm ([1]; day 9): 8.86 (2.67) | symptom score, Fitzmaurice mixed effects model, B − A (placebo − camostat) ([1]; day 9): 5.13 (2.85) | symptom severity score, ANCOVA linear mixed model, A: Camostat arm ([1]; day 9): −22.13 (2.2) | symptom severity score, ANCOVA linear mixed model, B − A (placebo − camostat) ([1]; day 9): 4.16 (3.06) | symptom severity score, Negative binomial model, A: Camostat arm ([1]; day 9): 9.94 (2.43) | symptom severity score, Negative binomial model, B − A ([1]; day 9): 1.25 (0.33) | COVID-19 symptom severity score raw Mean ([1]; day 10): 10 | symptom score, Fitzmaurice mixed effects model, A: Camostat arm ([1]; day 10): 8.24 (2.67) | symptom score, Fitzmaurice mixed effects model, B − A (placebo − camostat) ([1]; day 10): 4.67 (2.85) | symptom severity score, ANCOVA linear mixed model, A: Camostat arm ([1]; day 10): −22.75 (2.2) | symptom severity score, ANCOVA linear mixed model, B − A (placebo − camostat) ([1]; day 10): 3.7 (3.06) | symptom severity score, Negative binomial model, A: Camostat arm ([1]; day 10): 9.36 (2.56) | symptom severity score, Negative binomial model, B − A ([1]; day 10): 1.2 (0.36) | COVID-19 symptom severity score raw Mean ([1]; day 11): 9.3 | symptom score, Fitzmaurice mixed effects model, A: Camostat arm ([1]; day 11): 7.25 (2.69) | symptom score, Fitzmaurice mixed effects model, B − A (placebo − camostat) ([1]; day 11): 4.44 (2.87) | symptom severity score, ANCOVA linear mixed model, A: Camostat arm ([1]; day 11): −23.77 (2.22) | symptom severity score, ANCOVA linear mixed model, B − A (placebo − camostat) ([1]; day 11): 3.5 (3.08) | symptom severity score, Negative binomial model, A: Camostat arm ([1]; day 11): 8.49 (2.3) | symptom severity score, Negative binomial model, B − A ([1]; day 11): 1.17 (0.35) | COVID-19 symptom severity score raw Mean ([1]; day 12): 9.6 | symptom score, Fitzmaurice mixed effects model, A: Camostat arm ([1]; day 12): 8.18 (2.69) | symptom score, Fitzmaurice mixed effects model, B − A (placebo − camostat) ([1]; day 12): 2.39 (2.88) | symptom severity score, ANCOVA linear mixed model, A: Camostat arm ([1]; day 12): −22.87 (2.22) | symptom severity score, ANCOVA linear mixed model, B − A (placebo − camostat) ([1]; day 12): 1.46 (3.09) | symptom severity score, Negative binomial model, A: Camostat arm ([1]; day 12): 9.06 (2.18) | symptom severity score, Negative binomial model, B − A ([1]; day 12): 0.94 (0.25) | COVID-19 symptom severity score raw Mean ([1]; day 13): 9.7 | symptom score, Fitzmaurice mixed effects model, A: Camostat arm ([1]; day 13): 7.87 (2.75) | symptom score, Fitzmaurice mixed effects model, B − A (placebo − camostat) ([1]; day 13): 2.11 (2.95) | symptom severity score, ANCOVA linear mixed model, A: Camostat arm ([1]; day 13): −23.17 (2.29) | symptom severity score, ANCOVA linear mixed model, B − A (placebo − camostat) ([1]; day 13): 1.17 (3.15) | symptom severity score, Negative binomial model, A: Camostat arm ([1]; day 13): 8.9 (2.27) | symptom severity score, Negative binomial model, B − A ([1]; day 13): 0.88 (0.26) | COVID-19 symptom severity score raw Mean ([1]; day 14): 8.2 | symptom score, Fitzmaurice mixed effects model, A: Camostat arm ([1]; day 14): 7.8 (2.75) | symptom score, Fitzmaurice mixed effects model, B − A (placebo − camostat) ([1]; day 14): 2.24 (2.97) | symptom severity score, ANCOVA linear mixed model, A: Camostat arm ([1]; day 14): −23.26 (2.29) | symptom severity score, ANCOVA linear mixed model, B − A (placebo − camostat) ([1]; day 14): 1.32 (3.16) | symptom severity score, Negative binomial model, A: Camostat arm ([1]; day 14): 8.11 (2.11) | symptom severity score, Negative binomial model, B − A ([1]; day 14): 1.03 (0.31) | symptom severity scores compared to placebo ([1]; days 5 through 10, did not reach statistical significance): lower | time required for a negative SARS-CoV-2 test (primary endpoint) [2]: did not show efficacy | nose-family symptom score, Fitzmaurice model, Camostat ([3]; day 0): 7.6 (0.5) | nose-family symptom score, Fitzmaurice model, Camostat ([3]; day 1): 6.6 (0.6) | nose-family symptom score, Fitzmaurice model, Effect (placebo vs camostat) ([3]; day 1): 1.3 (0.7) | nose-family symptom score, Fitzmaurice model, Camostat ([3]; day 2): 6.6 (0.6) | nose-family symptom score, Fitzmaurice model, Effect (placebo vs camostat) ([3]; day 2): 0 (0.7) | nose-family symptom score, Fitzmaurice model, Camostat ([3]; day 3): 5.7 (0.6) | nose-family symptom score, Fitzmaurice model, Effect (placebo vs camostat) ([3]; day 3): 0.5 (0.7) | nose-family symptom score, Fitzmaurice model, Camostat ([3]; day 4): 5.6 (0.6) | nose-family symptom score, Fitzmaurice model, Effect (placebo vs camostat) ([3]; day 4): 0 (0.7) | nose-family symptom score, Fitzmaurice model, Camostat ([3]; day 5): 5.3 (0.6) | nose-family symptom score, Fitzmaurice model, Effect (placebo vs camostat) ([3]; day 5): 1 (0.7) | nose-family symptom score, Fitzmaurice model, Camostat ([3]; day 6): 3.9 (0.6) | nose-family symptom score, Fitzmaurice model, Effect (placebo vs camostat) ([3]; day 6): 1.4 (0.7) | nose-family symptom score, Fitzmaurice model, Camostat ([3]; day 7): 3.6 (0.6) | nose-family symptom score, Fitzmaurice model, Effect (placebo vs camostat) ([3]; day 7): 1.2 (0.7) | nose-family symptom score, Fitzmaurice model, Camostat ([3]; day 8): 3.3 (0.6) | nose-family symptom score, Fitzmaurice model, Effect (placebo vs camostat) ([3]; day 8): 1.5 (0.7) | nose-family symptom score, Fitzmaurice model, Camostat ([3]; day 9): 2.9 (0.6) | nose-family symptom score, Fitzmaurice model, Effect (placebo vs camostat) ([3]; day 9): 1.3 (0.7) | nose-family symptom score, Fitzmaurice model, Camostat ([3]; day 10): 2.9 (0.6) | nose-family symptom score, Fitzmaurice model, Effect (placebo vs camostat) ([3]; day 10): 0.9 (0.7) | nose-family symptom score, Fitzmaurice model, Camostat ([3]; day 11): 3 (0.6) | nose-family symptom score, Fitzmaurice model, Effect (placebo vs camostat) ([3]; day 11): 0.4 (0.7) | nose-family symptom score, Fitzmaurice model, Camostat ([3]; day 12): 2.5 (0.6) | nose-family symptom score, Fitzmaurice model, Effect (placebo vs camostat) ([3]; day 12): 0.7 (0.7) | nose-family symptom score, Fitzmaurice model, Camostat ([3]; day 13): 2.7 (0.6) | nose-family symptom score, Fitzmaurice model, Effect (placebo vs camostat) ([3]; day 13): 0.1 (0.7) | nose-family symptom score, Fitzmaurice model, Camostat ([3]; day 14): 2.7 (0.6) | nose-family symptom score, Fitzmaurice model, Effect (placebo vs camostat) ([3]; day 14): 0.2 (0.8)
